Assay results as given in patent US20250171516A1, “PEPTIDE ACIDS AS A GLP1R AGONIST AND ANTIBODY-DRUG CONJUGATES THEREOF” (Regeneron Pharmaceuticals, Inc., priority 2023, published 2025).
Several values for one entry are separate records, joined by “and”; a condition that tells them apart may be missing. Identical values can stand only once.

Tests used:
[1] = pH stability (special liability); type: physicochemical
GLP-1R [2] = target: T1, GLP-1R (Homo sapiens, UniProt P43220); test: b-arrestin 2 recruitment enzyme fragment complementation assay in HEK293/b-arrestin2/hGLP1R cells; type: cell-based; parameters: The full-length human GLP1R (NP_002053.3) with a C-terminus fusion to a small b-gal fragment called enzyme donor or ProLink (PK); host or cells: HEK293/b-arrestin2-EA (HEK293/Barrestin clone 2C6/hGLP1R-Prolink1 high sorted, ACL21687)
From the text: To test the recruitment of b-arrestin 1 and b-arrestin 2 to GLP1R upon receptor activation, two enzyme fragment complementation assays were developed. To generate the assay cell lines, b-arrestin 1 fused to the b-galactosidase (b-gal) reporter fragment called enzyme acceptor (EA) (i.e., b-arrestin1-EA) or b-arrestin 2 fused to the b-gal reporter fragment EA (i.e., b-arrestin2-EA) were transduced into HEK293 cells using PathHunter b-Arrestinl Retroparticles (DiscoverX, #83-OT-TB-N-01) or PathHunter b-Arrestin2 Retroparticles (DiscoverX, #93-1087), respectively. The full-length human GLP1R (NP_002053.3) with a C-terminus fusion to a small b-gal fragment called enzyme donor or ProLink (PK) (i.e., hGLP1R-PK) was then engineered into HEK293/b-arrestinl-EA cells and HEK293/b-arrestin2-EA cells to generate the cell lines referred herein as HEK293/b-arrestin1/hGLP1R and HEK293/b-arrestin2/hGLP1R. Recruitment of b-arrestin 1 or b-arrestin 2 to GLP1R in these reporter cell lines brings both b-gal fragments (EA and PK) into close proximity, leading to reconstitution of a fully functional enzyme capable of hydrolyzing a substrate and generating a chemiluminescent signal.
(§1) For all assays, cells were seeded into 384-well plates (Falcon #353988) at 6,000 cells/well in assay media (Opti-MEM, 1% FBS, 1×Penicillin-Streptomycin) and incubated overnight at 37° C. Serial dilutions of the anti-GLP1R ATLs and non-binding control ATLs were performed in assay media. Serial dilutions of linker-payloads (LPs) were performed in 100% DMSO (ATCC, #4-X-5), followed by 1:100 dilution in assay media. Test articles were added to cells (1:5 dilution) using VIAFLO 384 (Integra) with the last well in each serial dilution series serving as a blank control containing only assay media for ATLs or assay media with 0.2% DMSO for LPs. The blank was plotted as a continuation of the serial dilution.
For b-arrestin 1 and b-arrestin 2 recruitment assays, after a 1-hour incubation at 37° C., PathHunter Detection Reagent (Eurofins DiscoverX, #93-0001) was added to the wells followed by a 1-hour incubation at room temperature. RLUs were measured on EnVision Plate Reader (Perkin Elmer).
(§2) EC50 values for luminescence assays were determined using a four-parameter logistic equation over a 12-point dose response curve (GraphPad Prism).

GLP-1R [3] = target: T1, GLP-1R; test: CRE-Luc cAMP responsive luciferase reporter assay in HEK293/CRE-Luc/hGLP1R cells; type: cell-based; parameters: engineered to express full-length human GLP1R (GenBank: AAI12127.1) (HEK293/CRE-Luc/hGLP1R); expressed in transfected cells; host or cells: HEK293/CRE-Luc (HEK293/FSC11/pCDNA3.1 + GLP1R, ACL6822); conditions: for Emax: HEK293, read-out: Emax (% GLP-1), CRE-dependent reporter activity, HEK293/CRE-Luc/hGLP1R
From the text: To test the activity of GLP1R agonist linker-payloads (LPs) and anti-GLP1R antibody-tethered ligands (ATLs) of the invention, a cell-based cAMP responsive luciferase reporter assay was developed. To generate the assay cell line, the firefly luciferase gene was placed under the control of four copies of a cAMP response element (4×CRE) located upstream of a minimal promoter and transfected into HEK293 cells and referred to herein as HEK293/CRE-Luc cells. HEK293/CRE-Luc cells were then engineered to express full-length human GLP1R (GenBank: AAI12127.1) (HEK293/CRE-Luc/hGLP1R).
as §1
For the CRE-Luc assay, after a 5-hours incubation at 37° C., luciferase activity was determined by addition of ONE-Glo reagent (Promega, #E6130) followed by measurement of relative light units (RLUs) on EnVision Plate Reader (Perkin Elmer).
as §2

[4] = Metabolite study in human liver S9 (high resolution LC-MS); type: in vitro ADME
Method: Metabolite studies were conducted using Q-M3190 and Q-6009 (Q is Glutamine).
Liver S9 is the supernatant obtained by grinding and centrifuging the liver cells. The enzymes content is lower compared to Hepatocytes. It mainly contains CYP enzymes and some biphasic enzymes (but no biphasic coenzyme), so additional coenzyme (NADPH and UDPGA, etc.) is needed to mediate the biphasic reaction.

GLP-1R [5] = target: T1, GLP-1R; test: GLP-1R cAMP assay of peptides (Tables 10, 14, 15); type: cell-based

T1 sequence (P43220 24-463): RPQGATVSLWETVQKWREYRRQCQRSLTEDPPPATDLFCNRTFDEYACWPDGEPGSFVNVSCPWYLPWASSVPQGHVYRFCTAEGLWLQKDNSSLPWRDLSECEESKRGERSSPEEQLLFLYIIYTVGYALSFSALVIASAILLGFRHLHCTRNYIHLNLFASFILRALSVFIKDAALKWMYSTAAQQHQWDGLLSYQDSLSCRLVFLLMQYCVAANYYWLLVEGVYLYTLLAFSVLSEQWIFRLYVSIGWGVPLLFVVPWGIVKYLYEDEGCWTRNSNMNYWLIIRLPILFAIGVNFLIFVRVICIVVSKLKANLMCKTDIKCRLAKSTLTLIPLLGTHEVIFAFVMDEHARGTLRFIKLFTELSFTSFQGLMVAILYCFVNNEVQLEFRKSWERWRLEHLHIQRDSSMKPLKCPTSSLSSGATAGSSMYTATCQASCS

Compound	Special liability [1]	b-arrestin 2 recruitment (in words) (GLP-1R [2]; HEK293/b-arrestin2/hGLP1R cells)	solubility (physchem)	Emax (GLP-1R [3]) [%]	CRE-dependent luciferase reporter activity (in words) (GLP-1R [3]; HEK293/CRE-Luc/hGLP1R cells)	amount remaining / detected after incubation of Q-M6009 ([4]; Q-M6009 in human liver S9, text) [%]	Relative Abundance (% Total) ([4]; metabolites of Q-M3190 at 4 hours in human liver S9)	Relative Abundance (% Total) ([4]; metabolites of Q-M6009 at 4 hours in human liver S9)	GLP-1R CAMP Max (GLP-1R [5]; Table 10) [%]	EC50 (GLP-1R [5]; Table 10, read-out: GLP-1R CAMP EC50) [nM]	EC50 (GLP-1R [2]) [nM]	Emax (GLP-1R [2]; HEK293, read-out: Emax (% GLP-1), b-Arrestin2 recruitment, HEK293/b-arrestin2/hGLP1R) [%]	Emax (GLP-1R [2]; read-out: b-arrestin 2 recruitment Emax relative to GLP-1, HEK293/b-arrestin2/hGLP1R cells) [%]	EC50 (GLP-1R [5]) [nM]	solubility (Solubility in water)
CCc1cc(OCCCCn2cc(COCCOCCOCCOCCOCCOCCOCCOCCN)nn2)ccc1-c1ccc(C[C@H](NC(=O)[C@H](CC(=O)O)NC(=O)[C@H](CO)NC(=O)[C@@H](NC(=O)C(C)(Cc2ccccc2F)NC(=O)[C@@H](NC(=O)CNC(=O)[C@H](Cc2nn[nH]n2)NC(=O)C(C)(C)C(=O)NCCc2cnc[nH]2)[C@@H](C)O)[C@@H](C)O)C(=O)N[C@@H](CCCc2cc(C)cc(C)c2)C(=O)O)cc1 (some centres unmarked) [M6009]	stable at pH <3 or pH >11, and unstable at PH <1	comparable activities as that of M3190	> 70000 µg/mL and > 30000 µM	92.1	comparable activities as that of M3190	93	2.34	13.14	139.7	2.23					
CCc1cc(OCCCCn2cc(COCCOCCOCCOCCOCCOCCOCCOCCN)nn2)ccc1-c1ccc(C[C@H](NC(=O)[C@H](CC(=O)O)NC(=O)[C@H](CO)NC(=O)[C@@H](NC(=O)C(C)(Cc2ccccc2F)NC(=O)[C@@H](NC(=O)CNC(=O)[C@H](Cc2nnn[nH]2)NC(=O)C(C)(C)C(=O)NCCc2cnc[nH]2)[C@@H](C)O)[C@@H](C)O)C(=O)O)cc1 (some centres unmarked) [M6324]				91.6					53.33		> 1000	0.7	0.7	882	> 70000 µg/mL and > 30000 µM
